Test results taken from ChEMBL document CHEMBL4261633, “Butenolides from a marine-derived fungus Aspergillus terreus with antitumor activities against pancreatic ductal adenocarcinoma cells” (Bioorg Med Chem, 2018).

What was measured:
Assay type in all cases: functional, cell-based
PANC-1 = experiment: Antiproliferative activity against human PANC1 cells after 24 hrs by CCK8 assay; settings: PANC-1, 24 h
HCC1806 = experiment: Antiproliferative activity against human HCC1806 cells after 24 hrs by CCK8 assay; settings: HCC1806, 24 h
HT-29 = experiment: Antiproliferative activity against human HT-29 cells after 24 hrs by CCK8 assay; settings: HT-29, 24 h
HepG2 = experiment: Antiproliferative activity against human HepG2 cells after 24 hrs by CCK8 assay; settings: HepG2, 24 h
BEAS-2B = experiment: Antiproliferative activity against human BEAS2B cells after 24 hrs by CCK8 assay

Measured: IC50

COC(=O)[C@]1(Cc2ccc3c(c2)C=CC(C)(C)O3)OC(=O)C(O)=C1c1ccc(O)cc1
> 20 µM: PANC-1 | HCC1806 | HT-29 | HepG2 | BEAS-2B

COC(=O)[C@]1(Cc2ccc3c(c2)CC(C(C)(C)O)O3)OC(=O)C(O)=C1c1ccccc1 (stereo not given in full)
> 20 µM: PANC-1 | HCC1806 | HT-29 | HepG2 | BEAS-2B

COC(=O)[C@]1(Cc2ccc3c(c2)CCC(C)(C)O3)OC(=O)C(O)=C1c1ccc(O)cc1
> 20 µM: PANC-1 | HCC1806 | HT-29 | HepG2 | BEAS-2B

COC(=O)[C@]1(Cc2ccc3c(c2)C[C@H](C(C)(C)O)O3)OC(=O)C(O)=C1c1ccc(O)cc1 [BUTYROLACTONE IV]
> 20 µM: PANC-1 | HCC1806 | HT-29 | HepG2 | BEAS-2B

COC(=O)[C@]1(Cc2ccc3c(c2)CC(O)C(C)(C)O3)OC(=O)C(O)=C1c1ccccc1 (stereo not given in full)
> 20 µM: PANC-1 | HCC1806 | HT-29 | HepG2 | BEAS-2B

COC(=O)[C@]1(Cc2ccc3c(c2)C[C@H](O)C(C)(C)O3)OC(=O)C(O)=C1c1ccc(O)cc1 [BUTYROLACTONE V]
> 20 µM: PANC-1 | HCC1806 | HT-29 | HepG2 | BEAS-2B
